Here are results for three molecules from patent US10329304B2, “Compounds and methods for inhibition of hedgehog signaling and phosphodiesterase” (Vanderbilt University, priority 2014, dated 2019).

The test system of data set [1] is Hedgehog signaling (TM3-Gli-Luc). Nature of the data set: TM3-Gli-Luc luciferase reporter assay stimulated with 20 nM SAG. It counts as cell-based. As to conditions: for EC50: read-out: TM3-Gli-Luc EC50. In a few lines:
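Luciferase read-out divided by CellTiter-Glo viability, minus DMSO/no-SAG baseline, expressed relative to 20 nM SAG alone. Cells exposed to compound with SAG for 48 h at 37 °C in 2.5% FBS DMEM/F12 on gelatin. EC50 ±SEM from at least two separate-day runs.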
Background: A reporter such as luciferase makes a cellular process visible.

The subject of data set [2] is Hedgehog signaling (Gli-Luc reporter). As to conditions: read-out: reported EC50 in the Shh-LIGHT2 reporter line; cited from earlier work.
The subject of data set [3] is TM3-Gli-Luc cells. Nature of the data set: TM3-Gli-Luc cell viability (Cell Titer Glo, LD50). It counts as cell-based. As to the method: On the day of cell plating, 96-well plates were coated with 50 μL/well of sterile 0.1% gelatin for 5 minutes then aspirated and replaced with 50 μL/well of TM3 Culture Medium. TM3-Gli-Luc cells were seeded at a density of 5,000 cells/well in TM3 Culture Medium and incubated for 24 hours. A master mix of 20 nM SAG in TM3Luc Medium was prepared, and small molecule solutions were prepared by adding the desired amount of compound from 10 mM DMSO stock to TM3Luc Medium containing 20 nM SAG. Negative control was prepared by adding an equi-volume amount of DMSO as compared to small molecule treated conditions to TM3Luc Medium not containing SAG. Cell plating medium was aspirated and replaced with 100 μL/well of prepared small molecule-containing media, and plates were incubated for 48 hours before proceeding to luciferase activity and cell viability reading.
TM3Luc Medium from compound treated plates was aspirated and replaced with 82 μL/well of Glo Lysis Buffer (Promega, Madison, Wis., USA), and plates were shaken at 300 rpm and room temperature for 12 minutes. Lysate was split between two white 96-well plates, 45 μL/well and 25 μL/well for luciferase reading and cell viability respectively. For luciferase activity monitoring, 45 μL/well of Steady Glo (Promega, Madison, Wis., USA) was added to 45 μL/well of cell lysate, incubated at room temperature for 5 minutes, then luminescence was measured on a Turner Biosystems Modulus Microplate Reader (Sunnyvale, Calif., USA) with an integration time of 0.5 seconds. For cell viability measurement, 25 μL/well of Cell Titer Glo (Promega, Madison, Wis., USA) (prepared by 1:10 dilution with Glo Lysis Buffer) was added to 25 μL/well of cell lysate, incubated at room temperature for 5 minutes, then luminescence was measured as above.
All raw data was divided by the average of positive control cell titer data to arrive at percent cells remaining compared to positive control. […] At least two independent assays tested on separate days were averaged to provide LD50±standard error of the mean.
Background: Cellular ATP, detected with luciferase, serves as a proxy for viable cell number.

Data set [4] can be described thus: Lipophilic efficiency (LipE = pEC50 − cLogP) and cLogP. An outline of the steps: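 pEC50 came from TM3-Gli-Luc Gli-responsive luciferase reporter cells stimulated with 20 nM SAG, with non-specific cytotoxicity monitored in parallel. LipE was calculated by subtracting cLogP from pEC50.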
Data set [5] concerns Ptch1 transcription. Nature of the data set: Sufu−/− mouse embryonic fibroblasts qRT-PCR. In kind it is cell-based. From the text:
(§1) In light of EGM1's ability to halt Hh transcriptional activity at a node downstream of the negative regulator Sufu, and thus also downstream of Smo, we sought to confirm mode of action retention with our most promising analogs. Therefore, we employed Sufu−/− mouse embryonic fibroblasts (MEF) that display constitutively active transcription of Hh target genes Gli1 and Ptch1 and monitored the ability of our optimized analogs to repress signaling via quantitative reverse transcription-PCR (qRT-PCR). […] We then evaluated improved analogs from multiple structural classes including those from Table 1 with cyclohexylthiophene cores as well as from Table 13 with structurally distinct core modifications.
(§2) Sufu^−/− cells were seeded into 12-well plates at a density of 100,000 cells/well in D10 FBS and incubated for 24 hours. Small molecule solutions were prepared by adding the desired amount of compound from 10 mM DMSO stock to D0.5 FBS. Negative control was prepared by adding an equi-volume amount of DMSO to D0.5 FBS as compared to small molecule treated conditions. Cell plating medium was aspirated and replaced with 1 mL of prepared small molecule-containing media, and plates were incubated for 24 hours before proceeding to RNA isolation.
(§3) Cells were washed 1× with 1× phosphate-buffered saline (PBS) then RNA was isolated using the Qiagen RNeasy Mini Kit (Qiagen, Germantown, Md., USA) according to the manufacturer's protocol, eluting RNA from the spin column with 30 μL of RNase-free water. RNA was placed on ice and immediately subjected to reverse transcription. Remaining RNA was stored at −80° C.
(§4) Reverse transcription polymerase chain reaction (RT-PCR) was performed with the Applied Biosystems High Capacity cDNA Reverse Transcription Kit (ThermoFisher Scientific, Waltham, Mass., USA) using an Eppendorf MasterCycler. Each 20 μL reaction contained 0.5 μg of total RNA, 2 μL of 10×RT Buffer, 0.8 μL of 25×dNTP Mix (100 mM), 2 μL of 10×RT Random Primers, 1 μL of MultiScribe® Reverse Transcriptase (50 U/μL), 1 μL of Recombinant RNasin® Ribonuclease Inhibitor (40 U/μL) (Promega, Madison, Wis., USA), and nuclease-free water. Reverse transcription was performed with the following program: 25° C. for 10 minutes, 37° C. for 120 minutes, and 85° C. for 5 minutes. The cDNA was subjected to quantitative real-time PCR (Q-PCR) or stored at −20° C.
(§5) Quantitative real-time PCR was performed on an Applied Biosystems 7900 HT Fast Real Time PCR System in 384-well format. Each cDNA sample was assayed in triplicate with both probe of interest and control probe. Master mixes for each probe were prepared corresponding to 10 μL of Applied Biosystems TaqMan Universal PCR Master Mix (ThermoFisher Scientific, Waltham, Mass., USA), 1 μL of primer, and nuclease-free water corresponding to a volume providing 20 μL reactions when loading an average of 50 ng of cDNA. Quantitative real-time PCR was run with the following thermal cycling protocol: 50° C. for 2 min., 95° C. for 10 min., and 40 cycles of 95° C. for 15 seconds, 60° C. for 1 min., then fluorescence reading. The following FAM probes were purchased from Life Technologies (Carlsbad, Calif., USA): mouse GAPDH, Mm99999915_g1; mouse Gli1, Mm00494646_g1; mouse Ptch1, Mm01306905_m1.
(§6) Quantitative real-time PCR data for Hh signaling inhibition was quantitated using the ΔΔCt method. Control probe values were subtracted from probe of interest values to arrive at the ΔCt value. The ΔCt value was transformed by 2-^ΔCt to arrive at the ΔΔCt value. All ΔΔCt values were divided by the average negative control ΔΔCt value to provide percent Hh signaling activity. Percent inhibition values were derived by calculating the inverse of percent activity. Data is reported as mean±standard error of the mean (SEM), representing at least two biological replicates, each quantitated in triplicate.

Data set [6] has as its system Gli1 transcription. As to the kind of experiment: Sufu−/− mouse embryonic fibroblasts qRT-PCR. It counts as cell-based.
Text: as §1, §2, §3, §4, §5, §6
Background: Real-time PCR tracks product formation cycle by cycle.

For data set [7], the system named is Hh signaling. Nature of the data set: Hh signaling inhibition (assay not named, data not shown). In kind it is cell-based.
The subject of data set [8] is mouse aorta. Nature of the data set: Myography of cannulated mouse aorta. From the text: For myography, to test the vascular tone for presense of downstream or off target effects, mouse aorta was mounted and cannulated on a closed system. A physiological buffer (with respect to pH, CO2, and temperature) was circulated through the vessel.
The test system of data set [9] is PKA activation. As to the kind of experiment: Immunostaining of autophosphorylated PKA catalytic subunit in NIH3T3 cells. It counts as cell-based. The settings on record: SAG-stimulated NIH3T3 cells, Egm 5 μM, Rolipram 10 μM. As to the method: NIH3T3 cells were plated on Poly-D-Lysine-coated glass coverslips and were cultured at 37° C., 5% CO2 in DMEM medium containing 10% fetal bovine serum until reaching 75% confluency. For one set of experiments, cells were then transfected with VSV-tagged PDE4D3 plasmid (gift from Miles Houslay, University of Glasgow, Scotland, UK) using Fugene6 transfection reagent (Roche, Indianapolis, Ind.) per manufacturer's protocol. Afterward, cell medium was replaced with DMEM/0.5% FBS containing either 5 μM eggmanone or DMSO and incubated overnight at 37° C., 5% CO2. Cells were fixed in 4% PFA at room temperature for 10 minutes prior to permeabilization, blocking, and staining with primary antibodies against Arl13b (gift of Tamary Caspary, Emory University, Atlanta, Ga.) and VSV (AbCam, Cambridge, Mass.). Fluorescent immunocytochemistry was performed using species-specific, secondary antibodies (Jackson Immunoresearch, West Grove, Pa.). For additional immunocytochemistry experiment, cells were treated with 20 nM SAG in the presence or absence of 5 uM Eggmanone. After overnight incubation, cells were washed with PBS, fixed for 10 minutes in 4% PFA, permeabilized 20 minutes at −20C with cold methanol, blocked with PBS/1% BSA, and incubated with primary antibodies to phospho-PKA catalytic domain Thr197 (Cell Signaling, Danvers, Mass.) and then to Arl13b. An additional overnight blocking step using unconjugated rabbit IgG was required between primary antibody incubations since both antibodies were produced in rabbit. Fluorescent conjugated secondary antibodies were used for visualization. Data analysis was performed in part through the use of the VUMC Cell Imaging Shared Resource.
Using ImageJ software (National Institutes of Health, developed by W. Rasband), a region of interest was created using the magic wand tool on Arl13b channel and transposed to the Gli2 channel, and integrated density was measured and reported as arbitrary units (a.u.). For phospho-PKA, using ImageJ, a line selection tool was used to select a line projected through the length of the primary cilia and an equal length beyond. The intensity values were potted and the cumulative florescence (area under the curve) was calculated for three cilia, blindly, for each treatment. These values for cilia and pericilia domain were analyzed by a two tailed students t-test. For correlation analysis, correlation coefficient for intensity of gamma-tubulin and phosphor-PKA were calculated and compared among treatments with students t-test.

Data set [10] deals with total cellular cAMP levels. As to the kind of experiment: cAMP assay (total cellular cAMP, EIA chemiluminescence). It counts as cell-based. As to the method:
Shh-Light2 cells were seeded in a 96-well plate and incubated overnight. Varying concentrations of Rolipram or Eggmanone (0.013 uM-30 uM) or DMSO only were added to the cells in the absence of serum and incubated 30 minutes, at which time forskolin was added for a final concentration of 1 uM. After an additional 15 minutes, cells were washed with PBS and assayed for cAMP levels using EIA based chemiluminescence kit according to the manufacturer's protocol (Cell Signaling Technologies, Danvers, Mass.).

For data set [11], the system named is Hedgehog signaling (Gli-Luc reporter). Nature of the data set: Hh Gli-Luciferase reporter assay in Shh-Light2 cells. As to conditions: Shh-conditioned media. In kind it is cell-based, mouse. An outline of the steps:
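Steady-Glo luminescence, corrected for cell titer by CellTiter-Glo, was measured after overnight exposure to compound concentrations. Signaling in Gli-Luc Shh-Light2 cells came either from Shh-conditioned medium, 3 μM purmorphamine or 20 nM SAG, or from transfected Gli-2, PDE4D3 or DN-PDE4D3 constructs.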

The subject of data set [12] is cAMP. As to the kind of experiment: FRET-based cAMP sensors in NIH3T3 cells. It counts as cell-based. The settings on record: 2 μM. The text has this:
To visualize changes in cAMP concentrations in individual cells and cellular regions, we utilized two distinct FRET (fluorescence resonance energy transfer)-based cAMP sensors: the Epac-FRET sensor (mTurquoiseΔ-Epac(CD, ΔDEP)-cp173 Venus-Venus)^35, which detects cytosolic cAMP concentration and the PKA-based cAMP sensor (PKAC-YFP and PKARII-CFP combination), which has been used to document changes in local cAMP levels in the centrosome and basal body.

The mark [13] stands for this setting: Sufu−/− MEF, qRT-PCR, compounds tested at 10 μM, normalized to DMSO, mean ± SEM.

SMILES strings stand for the structures. Entries after “also recorded” stand apart in the source; their conditions may differ. Where two headings read alike, the source gives them in different places. A value given as a limit tells only on which side of the number the result lay.

On to `CN(C)c1ccccc1CN1CCCN(Cc2ccccc2N(C)C)C1c1ccncc1` [GANT-61, reference compound], for which the “Hh inhibitory activity / potency in words” value in data set [1] (20 nM SAG) is on record as “slightly higher than the reported”. In addition, the EC50 in [1] (20 nM SAG, mean ± standard error of the mean) is 9.27 ± 1.8 µM; in data set [1] (TM3-Gli-Luc reporter line stimulated with 20 nM SAG, mean ± SEM, Table 14), 9.27 ± 1.8 µM; in [2] it was around 5 µM. Moreover, in data set [3], the “TM3-Gli-Luc LD50” value is above 50 µM. Also, the LipE in [4] (Calculated as pEC50 - cLogP, Molinspiration Cheminformatics) is reported as 1.34; in data set [4] (pEC50 - cLogP, Table 14), 1.34. In addition, in data set [5] (10 μM), the “inhibition of Ptch1 transcription” value is reported as “approximately 50%”. Besides, in data set [5] (setting [13]), the “Sufu−/− % Inh. Ptch1 mRNA” value is recorded as 52.8 ± 2.7%. For the same molecule, the “inhibition of Gli1 transcription” value in data set [6] (10 μM) is recorded as “approximately 50%”. In addition, the “Sufu−/− % Inh. Gil1 mRNA” value in data set [6] (setting [13]) was determined as 43.8 ± 5.2%.

Take `O=C(Nc1c(Cl)cncc1Cl)c1ccc(OC(F)F)c(OCC2CC2)c1` [Roflumilast]: in [7], the “Potency for Hh signaling inhibition” value is on record as “micromolar potency”.

Consider `COc1ccc(C2CNC(=O)C2)cc1OC1CCCC1` (centres unmarked) [rolipram, reference compound], for which the “Vessel diameter after pre-constriction” value in data set [8] is given as “caused the vessel to dilate”. The “PKA activation (phospho-PKA-C staining), spatial distribution” value in data set [9] is “more diffuse increase in cytoplasmic phospho-PKA levels; also recorded: more diffuse increase in phospho-PKA staining”; in [9] (listed as Rolipram) it was “increases PKA activation more diffusely”. For the same molecule, the entries for the “Total cellular cAMP levels” value in data set [10] and in data set [10] (listed as Rolipram) were “substantially; also recorded: elicited robust cAMP accumulation” and “increased total cellular cAMP levels”, respectively. The “Sonic hedgehog (SHH)-responsive Gli-luciferase reporter activity” value is given as “did not bring the reporter activity down to the baseline even at very high concentrations” in [11] and “incomplete even at high concentrations” in [11] (listed as Rolipram). In addition, the “Cytosolic FRET signal (Epac-FRET sensor)” value in [12] is given as “significantly increased the FRET signal throughout the cell”.

The EC50 is the concentration giving half of the maximal effect.
